How the values were obtained:
Assay in all cases: relative viability (nuclei count vs DMSO), 5 days (fraction); higher = more cells survive
Tipifarnib + AZD7762 = compound: Cn1cncc1[C@@](N)(c1ccc(Cl)cc1)c1ccc2c(c1)c(-c1cccc(Cl)c1)cc(=O)n2C [Tipifarnib] + NC(=O)Nc1cc(-c2cccc(F)c2)sc1C(=O)N[C@H]1CCCNC1 [AZD7762] (partner 0.2 µM)
In short: (§1)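 After 5 days of treatment, lung cancer cells in 1536-well plates were fixed and stained in a single step (final 0.05% Triton X-100, 1% formaldehyde, 1 ug/ml Hoechst) and their nuclei counted on 4× images. Treatment had been applied by pin tool the day after seeding as one drug alone or as a fixed anchor-drug dose with five library-drug doses (not always all listed) in √10 steps. Relative viability is the nuclei count of treated wells divided by that of vehicle wells, and values are medians of duplicate plates.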

Tipifarnib + Pemetrexed = compound: Cn1cncc1[C@@](N)(c1ccc(Cl)cc1)c1ccc2c(c1)c(-c1cccc(Cl)c1)cc(=O)n2C [Tipifarnib] + Nc1nc2[nH]cc(CCc3ccc(C(=O)N[C@@H](CCC(=O)O)C(=O)O)cc3)c2c(=O)[nH]1 [Pemetrexed] (partner 0.2 µM)
In short: as §1

Tipifarnib + OSI-027 = compound: Cn1cncc1[C@@](N)(c1ccc(Cl)cc1)c1ccc2c(c1)c(-c1cccc(Cl)c1)cc(=O)n2C [Tipifarnib] + COc1cccc2cc(-c3nc([C@H]4CC[C@H](C(=O)O)CC4)n4ncnc(N)c34)[nH]c12 [OSI-027] (partner 0.5 µM)
In short: as §1

Tipifarnib + Foretinib = compound: Cn1cncc1[C@@](N)(c1ccc(Cl)cc1)c1ccc2c(c1)c(-c1cccc(Cl)c1)cc(=O)n2C [Tipifarnib] + COc1cc2c(Oc3ccc(NC(=O)C4(C(=O)Nc5ccc(F)cc5)CC4)cc3F)ccnc2cc1OCCCN1CCOCC1 [Foretinib] (partner 0.25 µM)
In short: as §1

Cell Line	relative viability (Tipifarnib + AZD7762; first compound 0.01 µM)	relative viability (Tipifarnib + AZD7762; first compound 0.03162 µM)	relative viability (Tipifarnib + AZD7762; first compound 0.1 µM)	relative viability (Tipifarnib + AZD7762; first compound 0.3162 µM)	relative viability (Tipifarnib + AZD7762; first compound 1 µM)	relative viability (Tipifarnib + Pemetrexed; first compound 0.01 µM)	relative viability (Tipifarnib + Pemetrexed; first compound 0.03162 µM)	relative viability (Tipifarnib + Pemetrexed; first compound 0.1 µM)	relative viability (Tipifarnib + Pemetrexed; first compound 0.3162 µM)	relative viability (Tipifarnib + Pemetrexed; first compound 1 µM)	relative viability (Tipifarnib + OSI-027; first compound 0.01 µM)	relative viability (Tipifarnib + OSI-027; first compound 0.03162 µM)	relative viability (Tipifarnib + OSI-027; first compound 0.1 µM)	relative viability (Tipifarnib + OSI-027; first compound 0.3162 µM)	relative viability (Tipifarnib + OSI-027; first compound 1 µM)	relative viability (Tipifarnib + Foretinib; first compound 0.01 µM)	relative viability (Tipifarnib + Foretinib; first compound 0.03162 µM)	relative viability (Tipifarnib + Foretinib; first compound 0.1 µM)	relative viability (Tipifarnib + Foretinib; first compound 0.3162 µM)	relative viability (Tipifarnib + Foretinib; first compound 1 µM)
HCC-44	0.943	0.979	0.959	0.899	0.837	0.619	0.615	0.625	0.589	0.604	0.736	0.423	0.383	0.329	0.289	–	–	–	–	–
NCI-H2228	–	–	–	–	–	0.364	0.34	0.361	0.296	0.333	0.502	0.427	0.363	0.214	0.168	1.04	0.815	0.636	0.495	0.672
ABC-1	1.04	–	–	0.558	0.54	–	–	–	–	–	0.554	–	0.414	0.32	0.267	1.28	–	0.965	0.762	0.843
COR-L23	–	–	–	–	–	0.215	0.205	0.195	0.206	0.188	0.572	0.36	0.261	0.24	0.202	1.14	0.839	0.699	0.618	0.579
NCI-H661	–	–	–	–	–	0.881	0.849	0.786	0.809	0.755	0.696	0.601	0.439	0.33	0.339	1.03	1.03	0.936	0.793	0.83
